Experimental data reported in patent US20260115191A1, “Nilotinib Compositions with Enhanced Solubility” (Neoform Biopharmaceutical Limited, priority 2020, published 2026).
Structures can show the parent of a compound that is named as a salt.

Experiment: In-vivo testing: plasma pharmacokinetics after single oral gavage of suspension in rats
Settings: Sprague-Dawley, rat, 10 mg/kg

AUC(0-t): 2910 ng·h/mL
Cmax: 493 ng/mL
Tmax: 2 h
Compound: Cc1cn(-c2cc(NC(=O)c3ccc(C)c(Nc4nccc(-c5cccnc5)n4)c3)cc(C(F)(F)F)c2)cn1 [Nilotinib HCl monohydrate, 4-methyl-N-[3-(4-methylimidazol-1-yl)-5-(trifluoromethyl)phenyl]-3-[(4-pyridin-3-ylpyrimidin-2-yl)amino]benzamide]
